The results in this text go back to US20180008587A1, “THIOHYDANTOIN ANDROGEN RECEPTOR ANTAGONISTS FOR THE TREATMENT OF CANCER” (Jaressen Pharmaceutica NV, priority 2016, published 2018).

Substitutions are numbered along the chain they refer to.

Assay type in all cases: cell-based
Assay [1] addresses T1, F876L mutant Androgen Receptor (AR-F876L) (Homo sapiens, UniProt P10275, F877L).
T1 construct: expressed in transfected cells; host or cells: LNCaP (LNCaP F876L)
T1 sequence (P10275 1-920 F877L): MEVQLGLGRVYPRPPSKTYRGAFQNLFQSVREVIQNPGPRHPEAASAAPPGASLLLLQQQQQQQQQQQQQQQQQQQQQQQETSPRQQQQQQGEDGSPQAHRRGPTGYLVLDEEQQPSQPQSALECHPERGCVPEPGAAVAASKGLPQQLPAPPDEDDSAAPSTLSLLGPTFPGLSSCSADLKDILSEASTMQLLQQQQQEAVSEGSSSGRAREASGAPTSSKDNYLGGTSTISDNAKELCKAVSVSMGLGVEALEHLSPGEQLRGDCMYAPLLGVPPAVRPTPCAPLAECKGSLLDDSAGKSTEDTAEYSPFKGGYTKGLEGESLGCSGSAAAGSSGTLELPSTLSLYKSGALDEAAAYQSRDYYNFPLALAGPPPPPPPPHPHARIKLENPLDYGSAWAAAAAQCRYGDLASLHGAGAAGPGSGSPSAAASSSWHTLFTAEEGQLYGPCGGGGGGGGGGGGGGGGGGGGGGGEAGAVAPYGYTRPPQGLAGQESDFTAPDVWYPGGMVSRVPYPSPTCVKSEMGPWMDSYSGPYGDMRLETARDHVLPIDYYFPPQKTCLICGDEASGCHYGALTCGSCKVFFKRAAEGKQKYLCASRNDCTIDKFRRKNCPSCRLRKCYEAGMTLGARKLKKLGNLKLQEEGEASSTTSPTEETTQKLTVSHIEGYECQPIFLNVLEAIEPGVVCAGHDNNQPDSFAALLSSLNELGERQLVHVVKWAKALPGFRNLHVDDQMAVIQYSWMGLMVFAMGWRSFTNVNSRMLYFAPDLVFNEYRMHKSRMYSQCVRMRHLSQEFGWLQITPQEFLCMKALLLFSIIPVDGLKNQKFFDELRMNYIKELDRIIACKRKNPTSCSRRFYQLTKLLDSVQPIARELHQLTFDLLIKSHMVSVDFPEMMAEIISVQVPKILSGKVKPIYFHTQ
The experiment in a line: LNCaP-AR-F876L AG reporter assay (ARE firefly luciferase, agonist mode). As to conditions: for EC50: agonist mode, −Log10(EC50 [Molar]), read-out: LNCaP-AR-F876L AG pEC50 (converted); for Emax: read-out: LNCaP-AR-F876L AG MAX % Stim. The gist of the method: (§1)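 Cells: stable LNCaP pools, AR-wt or AR-F876L, in charcoal-stripped serum. Agonist challenge for antagonist mode was 400 pM (WT) and 600 pM (F876L). Luminescence was measured after 20-24 h incubation.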

Assay [2] has as its target T2, wild-type Androgen Receptor (AR-wt) (Homo sapiens, UniProt P10275).
T2 construct: expressed in transfected cells; host or cells: LNCaP (LNCaP AR (cs))
T2 sequence (P10275 1-920): T1 sequence (P10275 1-920 F877L) with L877F
The experiment in a line: LNCaP-AR-wt AG reporter assay (ARE firefly luciferase, agonist mode). The following applies: for EC50: agonist mode, −Log10(EC50 [Molar]), read-out: LNCaP-AR-wt AG pEC50 (converted); for Emax: read-out: LNCaP-AR-wt AG MAX % Stim. The gist of the method: as §1

Assay [3] has as its target T1, F876L mutant Androgen Receptor (AR-F876L). Nature of the assay: LNCaP-AR-F876L ANT reporter assay (ARE firefly luciferase, antagonist mode). As to conditions: for Emax: maximum % inhibition of R1881 control response over tested concentration range, read-out: LNCaP-AR-F876L ANT MAX % Inh; for IC50: read-out: LNCaP-AR-F876L ANT pIC50 (converted). In outline:
(§2)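 LNCaP stable pooled lines expressing ARE-firefly luciferase, in charcoal-stripped serum medium, were exposed to compounds; antagonist mode used agonist at 400 pM (WT) or 600 pM (F876L).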
A general note: A reporter such as luciferase makes a cellular process visible.

The target in assay [4] is T2, wild-type Androgen Receptor (AR-wt). Nature of the assay: LNCaP-AR-wt ANT reporter assay (ARE firefly luciferase, antagonist mode). The following applies: for IC50: antagonist mode, 400 pM R-1881 challenge, −Log10(IC50 [Molar]), read-out: LNCaP-AR-wt ANT pIC50 (converted); for Emax: maximum % inhibition of R1881 control response over tested concentration range, read-out: LNCaP-AR-wt ANT MAX % Inh. The gist of the method: as §2

Where [5] appears, read: maximum % stimulation (agonist response) over tested concentration range.

Consider `Cc1ccc(N2C(=S)N(c3cnc(C#N)c(C(F)(F)F)c3)C(=O)C23CCC3)cc1F` [Cpd 115, 5-[8-(3-fluoro-4-methyl-phenyl)-5-oxo-7-thioxo-6,8-diazaspiro[3.4]octan-6-yl]-3-(trifluoromethyl)pyridine-2-carbonitrile], for which the EC50 in assay [1] and in assay [2] was > 15100 nM each time. For the same molecule, the Emax in assay [1] (setting [5]) worked out at 3.4%; in assay [2] (setting [5]) it was 1.1%; in assay [3], 96.1%; in assay [4] it was 100%. Moreover, the IC50 in assay [3] was 437 nM; in assay [4], 372 nM.
Regarding `N#Cc1ncc(N2C(=O)C3(CCC3)N(c3ccc(C(=O)NCCc4ccccn4)c(F)c3)C2=S)cc1C(F)(F)F` [Cpd 15, 4-[6-[6-cyano-5-(trifluoromethyl)-3-pyridyl]-5-oxo-7-thioxo-6,8-diazaspiro[3.4]octan-8-yl]-2-fluoro-N-[2-(2-pyridyl)ethyl]benzamide], the EC50 in assay [1] and in assay [2] was > 15100 nM throughout. Further, the Emax is 0% in assay [1] (setting [5]), -0.1% in assay [2] (setting [5]), 102% in assay [3] and 103% in assay [4]. Further, the results for the IC50 in assay [3] and in assay [4] were 46.8 nM and 209 nM, respectively.
In the case of `Cc1ccc(-c2ccc(N3C(=S)N(c4cnc(C#N)c(C)c4)C(=O)C34CCC4)cc2)o1` [Cpd 50, 3-methyl-5-[8-[4-(5-methyl-2-furyl)phenyl]-5-oxo-7-thioxo-6,8-diazaspiro[3.4]octan-6-yl]pyridine-2-carbonitrile], the EC50 in assay [1] and in assay [2] was > 15100 nM throughout. The Emax in assay [1] came to 0.2%; in assay [2] it was 0.7%; in assay [3], 98.2%; in assay [4], 98%. Besides, the IC50 in assay [3] was 282 nM; in assay [4] it was 363 nM.
In the case of `N#Cc1ncc(N2C(=O)C3(CCC3)N(c3cccc(Oc4ccccc4)c3)C2=S)cc1C(F)(F)F` [Cpd 20, 5-[5-oxo-8-(3-phenoxyphenyl)-7-thioxo-6,8-diazaspiro[3.4]octan-6-yl]-3-(trifluoromethyl)pyridine-2-carbonitrile], the EC50 in assay [1] and in assay [2] was > 15100 nM throughout. For the same molecule, the Emax was found to be 0.2% in assay [1] (setting [5]), 1.3% in assay [2] (setting [5]), 95.4% in assay [3] and 90% in assay [4]. Also, the IC50 in assay [3] is 977 nM; in assay [4], 1320 nM.
On to `CN1CCN(Cc2ccc(N3C(=S)N(c4cnc(C#N)c(C(F)(F)F)c4)C(=O)C34CCC4)cc2)CC1` [Cpd 30, 5-[8-[4-[(4-methylpiperazin-1-yl)methyl]phenyl]-5-oxo-7-thioxo-6,8-diazaspiro[3.4]octan-6-yl]-3-(trifluoromethyl)pyridine-2-carbonitrile], for which the EC50 in assay [1] and in assay [2] was > 15100 nM each time. The Emax in assay [1] (setting [5]) amounted to 0.1%; in assay [2] (setting [5]), 0.1%; in assay [3], 98.8%; in assay [4] it was 100%. For the same molecule, the IC50 in assay [3] is 162 nM; in assay [4], 331 nM.
For `Cc1cc(N2C(=O)C3(CCC3)N(c3ccc(OC4CCNCC4)cc3)C2=S)cnc1C#N` [Cpd 83, 3-methyl-5-[5-oxo-8-[4-(4-piperidyloxy)phenyl]-7-thioxo-6,8-diazaspiro[3.4]octan-6-yl]pyridine-2-carbonitrile], the EC50 in assay [1] and in assay [2] was > 15100 nM throughout. In addition, the Emax worked out at 0.5% in assay [1] (setting [5]), 0.1% in assay [2] (setting [5]), 99.5% in assay [3] and 98.8% in assay [4]. Also, the figures for the IC50 in assay [3] and in assay [4] were 1000 nM and 2240 nM, respectively.
